Measured values from the NIST ThermoML archive (doi:10.1016/j.jct.2017.03.027).
± gives the expanded uncertainty stated by the source.

Legend:
[1] = xn = mol fraction of the nth substance listed; settings: 100 kPa, Liquid, Vibrating tube method
[2] = molar heat capacity at constant pressure; xn = mol fraction of the nth substance listed; settings: 100 kPa, Liquid, Large sample (1 g) DSC

Cc1ccc(C(C)C)cc1 [1-(1-methylethyl)-4-methylbenzene] + CCO
Settings	mass density, 298.15 K [kg/m3]	mass density, 308.15 K [kg/m3]	mass density, 318.15 K [kg/m3]	mass density, 328.15 K [kg/m3]	molar heat capacity at constant pressure, 298.6 K [J/K/mol]	molar heat capacity at constant pressure, 308.5 K [J/K/mol]	molar heat capacity at constant pressure, 318.5 K [J/K/mol]	molar heat capacity at constant pressure, 328.4 K [J/K/mol]
[1], x1 = 0.0494	793.49 ± 0.71	784.81 ± 0.71	775.96 ± 0.71	766.9 ± 0.71	–	–	–	–
[1], x1 = 0.0995	800.72 ± 0.71	792.02 ± 0.71	783.15 ± 0.71	774.08 ± 0.71	–	–	–	–
[1], x1 = 0.2	812.35 ± 0.71	803.65 ± 0.71	794.79 ± 0.71	785.71 ± 0.71	–	–	–	–
[1], x1 = 0.3009	821.26 ± 0.71	812.6 ± 0.71	803.77 ± 0.71	794.75 ± 0.71	–	–	–	–
[1], x1 = 0.4037	828.42 ± 0.71	819.8 ± 0.71	811.02 ± 0.71	802.06 ± 0.71	–	–	–	–
[1], x1 = 0.5034	834.18 ± 0.71	825.62 ± 0.71	816.91 ± 0.71	808.04 ± 0.71	–	–	–	–
[1], x1 = 0.6023	838.73 ± 0.71	830.22 ± 0.71	821.58 ± 0.71	812.79 ± 0.71	–	–	–	–
[1], x1 = 0.7017	842.86 ± 0.71	834.43 ± 0.71	825.88 ± 0.71	817.21 ± 0.71	–	–	–	–
[1], x1 = 0.802	846.53 ± 0.71	838.18 ± 0.71	829.75 ± 0.71	821.21 ± 0.71	–	–	–	–
[1], x1 = 0.897	849.61 ± 0.71	841.37 ± 0.71	833.06 ± 0.71	824.68 ± 0.71	–	–	–	–
[1], x1 = 0.9509	851.34 ± 0.71	843.19 ± 0.71	834.99 ± 0.71	826.74 ± 0.71	–	–	–	–
[1], x1 = 1	852.93 ± 0.71	844.89 ± 0.71	836.81 ± 0.71	828.69 ± 0.71	–	–	–	–
[2], x1 = 0.0494	–	–	–	–	121.2 ± 2	126.1 ± 2.1	130.8 ± 2.1	135.6 ± 2.2
[2], x1 = 0.0995	–	–	–	–	130 ± 2.1	134.7 ± 2.2	140.1 ± 2.3	145.9 ± 2.4
[2], x1 = 0.2	–	–	–	–	146.5 ± 2.4	152.2 ± 2.5	157.8 ± 2.6	163.8 ± 2.7
[2], x1 = 0.3009	–	–	–	–	162.2 ± 2.6	168.5 ± 2.7	174.7 ± 2.8	181 ± 2.9
[2], x1 = 0.4037	–	–	–	–	177.7 ± 2.9	183.8 ± 3	190.2 ± 3.1	197 ± 3.2
[2], x1 = 0.5034	–	–	–	–	192.6 ± 3.1	199 ± 3.2	205.4 ± 3.3	211.9 ± 3.4
[2], x1 = 0.6023	–	–	–	–	205.5 ± 3.3	211.8 ± 3.4	219.4 ± 3.6	225.1 ± 3.7
[2], x1 = 0.7017	–	–	–	–	217.6 ± 3.5	224.3 ± 3.6	230.7 ± 3.8	236.9 ± 3.9
[2], x1 = 0.802	–	–	–	–	229.2 ± 3.7	235.3 ± 3.8	240.9 ± 3.9	247 ± 4
[2], x1 = 0.897	–	–	–	–	238.6 ± 3.9	243.1 ± 4	248.4 ± 4	253.8 ± 4.1
[2], x1 = 0.9509	–	–	–	–	240.2 ± 3.9	243.9 ± 4	248.9 ± 4	254.1 ± 4.1
[2], x1 = 1	–	–	–	–	240.3 ± 3.9	244.7 ± 4	249.4 ± 4.1	254.4 ± 4.1
